Laboratory results as given in BindingDB's records for patent US10155727 (Janssen Pharmaceuticals, 2018).

Target: Glutamate receptor ionotropic, NMDA 2B (Rattus norvegicus, UniProt P35439+Q00960)
Assay: Inhibition of Specific Binding to the Rat NR1/NR2B Receptor
Method: After thawing on the day of the assay, a 5 ml membrane aliquot was centrifuged at 48000 g for 30 min at 4° C. The pellet was resuspended in 5 ml of 5 mM Tris/1 mM EDTA buffer, pH 7.4, homogenized for 30 sec at 20000 rpm with an Ultraturrax and centrifuged at 48000 g for 30 min at 4° C. This was repeated twice. […] Nonspecific binding was estimated in the presence of […]. The samples were incubated for 60 min. at 4° C.The incubation was terminated by filtration of the membrane preparations using Filtermat B (Pharmacia, Uppsala Sweden) and a Micro Cell Harvester (Skatron, Lier, Norway). The Filtermat B had been presoaked with 1% polyethylene imine and carefully washed with 50 mM Tris/HCl-buffer pH 7.7 after the filtration to separate free and bound radioactivity. […] For pipetting of the incubation mixture the robot Biomek2000 (Fa. Beckman) was used.

Sequence of Glutamate receptor ionotropic, NMDA 2B (Q00960 whole entry, one chain of several): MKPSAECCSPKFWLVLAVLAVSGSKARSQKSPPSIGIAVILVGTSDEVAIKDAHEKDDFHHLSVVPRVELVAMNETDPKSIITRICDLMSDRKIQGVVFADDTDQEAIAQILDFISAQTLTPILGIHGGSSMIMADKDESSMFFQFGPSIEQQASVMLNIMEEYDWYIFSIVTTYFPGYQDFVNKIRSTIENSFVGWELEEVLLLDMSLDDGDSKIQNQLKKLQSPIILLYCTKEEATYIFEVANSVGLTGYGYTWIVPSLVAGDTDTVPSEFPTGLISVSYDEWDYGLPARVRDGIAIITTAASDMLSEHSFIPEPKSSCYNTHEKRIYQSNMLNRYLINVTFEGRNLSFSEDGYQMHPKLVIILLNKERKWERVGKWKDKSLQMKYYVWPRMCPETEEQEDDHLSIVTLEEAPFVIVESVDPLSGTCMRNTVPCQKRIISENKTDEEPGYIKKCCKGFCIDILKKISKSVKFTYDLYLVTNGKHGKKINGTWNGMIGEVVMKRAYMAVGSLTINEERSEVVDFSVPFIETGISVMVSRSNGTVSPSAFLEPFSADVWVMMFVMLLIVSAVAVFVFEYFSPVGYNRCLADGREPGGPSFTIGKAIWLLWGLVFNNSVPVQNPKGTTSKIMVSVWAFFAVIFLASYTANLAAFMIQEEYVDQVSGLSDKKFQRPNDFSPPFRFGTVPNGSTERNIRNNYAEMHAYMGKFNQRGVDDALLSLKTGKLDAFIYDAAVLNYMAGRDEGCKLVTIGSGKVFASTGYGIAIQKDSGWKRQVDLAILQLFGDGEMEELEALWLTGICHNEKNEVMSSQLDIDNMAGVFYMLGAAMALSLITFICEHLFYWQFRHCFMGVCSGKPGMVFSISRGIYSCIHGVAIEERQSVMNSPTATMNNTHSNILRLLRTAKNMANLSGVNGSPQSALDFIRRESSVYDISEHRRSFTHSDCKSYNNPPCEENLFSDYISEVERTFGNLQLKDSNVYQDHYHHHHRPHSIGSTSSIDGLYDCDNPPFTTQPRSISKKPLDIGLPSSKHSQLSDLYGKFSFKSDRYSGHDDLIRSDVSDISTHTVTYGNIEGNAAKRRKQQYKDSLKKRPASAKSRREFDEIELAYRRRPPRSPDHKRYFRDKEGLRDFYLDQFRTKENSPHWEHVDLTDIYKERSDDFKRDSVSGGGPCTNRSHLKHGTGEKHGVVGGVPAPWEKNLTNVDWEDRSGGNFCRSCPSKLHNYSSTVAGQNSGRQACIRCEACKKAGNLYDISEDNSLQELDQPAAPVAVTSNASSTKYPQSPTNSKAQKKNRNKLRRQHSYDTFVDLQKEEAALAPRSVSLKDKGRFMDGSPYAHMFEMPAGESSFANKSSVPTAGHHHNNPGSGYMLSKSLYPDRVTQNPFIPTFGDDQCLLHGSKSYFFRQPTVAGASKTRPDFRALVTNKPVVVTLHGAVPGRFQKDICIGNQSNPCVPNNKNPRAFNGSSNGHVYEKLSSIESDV

| SMILES | IC50 [µM] |
| --- | --- |
| Cn1ccc(Cn2cc(-c3cccc(C(F)(F)F)c3)cn2)n1 [US10155727, Example 49] | 2.25 |
| Cc1cc(Cn2cc(-c3ccc(C(F)(F)F)cc3)cn2)n(C)n1 [US10155727, Example 51] | 9.21 |
